pEC50, pIC50: −log10 of the molar value. Like-named read-outs stand apart in the source and are kept apart here.
Assays:
Type in all cases: cell-based
AhR [1] = biological target: T1, AhR (Homo sapiens, UniProt P35869); assay: In vitro assay 4: endogenous AhR activity assay (CYP1A1 and CYP1B1 mRNA, qRT-PCR, HepG2 cells); details: TCDD 10 nM with compound 123 nM, 4 hours, mRNA relative to β-actin
T1 construct: host or cells: HepG2
T1 sequence (P35869 11-848): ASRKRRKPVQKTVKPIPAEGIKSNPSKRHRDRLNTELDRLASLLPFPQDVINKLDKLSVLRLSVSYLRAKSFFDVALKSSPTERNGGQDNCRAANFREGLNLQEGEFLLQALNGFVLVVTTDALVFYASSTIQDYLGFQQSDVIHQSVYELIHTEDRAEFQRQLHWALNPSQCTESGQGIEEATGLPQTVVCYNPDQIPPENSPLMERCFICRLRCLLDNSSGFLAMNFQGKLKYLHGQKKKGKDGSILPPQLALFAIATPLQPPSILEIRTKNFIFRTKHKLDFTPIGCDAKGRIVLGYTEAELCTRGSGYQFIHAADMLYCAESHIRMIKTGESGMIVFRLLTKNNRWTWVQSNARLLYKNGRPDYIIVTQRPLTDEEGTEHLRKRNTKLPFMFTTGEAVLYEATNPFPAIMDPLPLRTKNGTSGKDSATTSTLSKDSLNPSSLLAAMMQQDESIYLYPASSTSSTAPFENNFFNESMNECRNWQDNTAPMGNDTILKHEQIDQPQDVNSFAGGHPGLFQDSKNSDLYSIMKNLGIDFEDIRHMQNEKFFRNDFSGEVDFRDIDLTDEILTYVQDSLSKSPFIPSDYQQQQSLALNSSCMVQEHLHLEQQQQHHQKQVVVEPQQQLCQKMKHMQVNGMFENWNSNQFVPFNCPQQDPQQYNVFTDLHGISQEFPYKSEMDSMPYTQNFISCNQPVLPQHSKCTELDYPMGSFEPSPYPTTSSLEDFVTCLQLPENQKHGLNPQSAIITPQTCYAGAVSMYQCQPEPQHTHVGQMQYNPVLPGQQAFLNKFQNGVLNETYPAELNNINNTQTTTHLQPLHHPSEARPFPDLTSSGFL
Procedure: In Vitro Assay 4: Endogenous AhR Activity Assay
HepG2 cells were seeded in 12-well plate (3×10^5 cells/well). A day after seeding, the cells were treated with TCDD (10 nM) alone or with compounds (123 nM) for 4 hours. Total RNA was extracted using Trizol (Thermo Fisher Scientific). cDNA synthesis and quantitative RT-PCR (qRT-PCR) assays were performed using PrimeScript™ RT Master Mix (TAKARA) and TB Green™ Premix Ex Taq™ II (TAKARA) in accordance with manufacturer's instruction. For the measurement of endogenous AhR activity, relative mRNA levels of CYP1A1 and CYP1B1 were quantitated relative to β(beta)-actin mRNA by the comparative Ct (ΔΔCt) method. The percent inhibitions were calculated according to: […]

AhR [2] = biological target: T1, AhR; assay: In vitro assay 1: XRE-luciferase reporter assay, antagonism in human cell line (HepG2); details: HepG2 XRE-luciferase, 6 hours, read-out: Assay 1: AhR-Luc Human Antagonism (IC50)
Method in brief: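 HepG2 cells carrying XRE-firefly luciferase (transient or stable) plus constitutive Nano-Luc control, stimulated 6 h with kynurenine (50 or 200 μM) with or without compound. Firefly/Nano-Luc ratio normalized to kynurenine-alone (maximum) and vehicle (minimum); IC50 by four-parameter nonlinear regression.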

AhR [3] = biological target: T1, AhR; assay: In vitro assay 3: XRE-luciferase reporter assay, agonism in human cell line (HepG2); details: HepG2 XRE-Luc, tryptophan free medium, test compound alone, 6 hours; for pEC50: read-out: Assay 3: AhR-Luc Human Agonism (EC50); for EC50: read-out: Assay 3: AhR-Luc Human Agonism (EC50, nM), class in brackets
From the text: In Vitro XRE-Luciferase Reporter Assay (In Vitro Assay 1, 2, 3)
AhR activation leads the induction of target gene expression such as CYP1A1 and CYP1B1 by AhR binding to AhR-responsive DNA elements also known as xenobiotics responsive elements (XRE). The assay for measuring AhR activity herein is the luciferase assay using cell lines transfected with luciferase reporter plasmid containing XREs at the upstream of the reporter gene. Cells transfected with XRE-luciferase reporter (XRE-Luc) plasmid drive luciferase activity reflecting activation and inhibition of AhR in the cells. In addition to transfection with XRE-reporter vector, cells were co-transfected with Nano-luciferase reporter gene construct (Nano-Luc) containing constitutively active promoter as internal control. Kynurenine (an endogenous AhR agonist) was used to stimulate cells to test antagonistic properties of the compounds. The half-maximal inhibitory concentration (IC50) or half-maximal effective concentration (EC50) value was calculated using nonlinear regression (four parameters) with Prism8.0 software (GraphPad).
In Vitro Assay 3: Agonism in Human Cell Line
HepG2 (human hepatoma cell line) cells co-transfected with XRE-Luc and Nano-Luc plasmids were plated in tryptophan free medium containing 1% of dialyzed fetal bovine serum and incubated overnight at 37° C. in a CO2 incubator. After 24 hours, cells were treated for 6 hours with test compounds or not. Firefly luciferase and Nano-luciferase activity was measured using Nano-glo Luciferase kit (Promega) and relative luciferase activity (Firefly/Nano-Luc) was used to calculate EC50 values. As a positive control, cells were incubated with TCDD. (EC50 Values are grouped as A, B, C and D, whereby A: EC50<0.1 μM; B: 0.1<EC50<1.0 μM; C: 1.0<EC50<10 μM; D: EC50>10 μM)

[4] = read-out: CYP1A1 (% Inhibition)
[5] = read-out: CYP1B1 (% Inhibition)
[6] = cells treated with kynurenine 200 μM (no *)
[7] = cells treated with kynurenine 50 μM (*)

Row | Structure (SMILES) | inhibition at 0.123 µM (AhR [1]; [4]) | inhibition at 0.123 µM (AhR [1]; [5]) | pIC50 (AhR [2]; [6]) | pEC50 (AhR [3]) | pIC50 (AhR [2]; [7]) | EC50 (AhR [3])
1 | O=c1c2cc(-c3ccc(C(F)(F)F)cc3)nc(-c3cccnc3)c2ncn1[C@@H]1CCCC[C@@H]1O [Example 16, 3-((1R,2S)-2-hydroxycyclohexyl)-8-(pyridin-3-yl)-6-(4-(trifluoromethyl)phenyl)pyrido[3,4-d]pyrimidin-4(3H)-one] | 99.6% | 100% | > 8.00 |  |  | 
2 | Cn1cc(-c2nc(-c3ccc(C(F)(F)F)cc3)cc3c(=O)n([C@H]4CCCC[C@H]4O)cnc23)cn1 [Example 17, 3-((1S,2R)-2-hydroxycyclohexyl)-8-(1-methyl-1H-pyrazol-4-yl)-6-(4-(trifluoromethyl)phenyl)pyrido[3,4-d]pyrimidin-4(3H)-one] | 90.7% | 99.1% | < 6.00 |  |  | 
3 | CC(C)(O)Cn1cnc2c(-c3cccnc3)nc(-c3ccc(Cl)cc3)cc2c1=O [Example 38, 6-(4-chlorophenyl)-3-(2-hydroxy-2-methylpropyl)-8-(pyridin-3-yl)pyrido[3,4-d]pyrimidin-4(3H)-one] | 100% |  | > 8.00 | 5.78 |  | 
4 | CC(CO)n1cnc2c(-c3cnn(C)c3)nc(-c3ccc(C(F)(F)F)cc3)cc2c1=O (stereo not shown) [Example 45, 3-(1-hydroxypropan-2-yl)-8-(1-methyl-1H-pyrazol-4-yl)-6-(4-(trifluoromethyl)phenyl)pyrido[3,4-d]pyrimidin-4(3H)-one] | 99.6% | 100% |  | 10.37 | > 8.00 | 
5 | CCC(CO)n1cnc2c(-c3cccnc3)nc(-c3ccc(Cl)cc3)cc2c1=O (stereo not shown) [Example 51, 6-(4-chlorophenyl)-3-(1-hydroxybutan-2-yl)-8-(pyridin-3-yl)pyrido[3,4-d]pyrimidin-4(3H)-one] | 99.2% |  |  | 6.15 | > 8.00 | 
6 | CCC(CO)n1cnc2c(-c3cnn(C)c3)nc(-c3ccc(Cl)cc3)cc2c1=O (stereo not shown) [Example 52, 6-(4-chlorophenyl)-3-(1-hydroxybutan-2-yl)-8-(1-methyl-1H-pyrazol-4-yl)pyrido[3,4-d]pyrimidin-4(3H)-one] |  |  |  | 6.54 | > 8.00 | 
7 | CCC(CO)n1cnc2c(-c3cccc(F)c3)nc(-c3ccc(Cl)cc3)cc2c1=O (stereo not shown) [Example 55, 6-(4-chlorophenyl)-8-(3-fluorophenyl)-3-(1-hydroxybutan-2-yl)pyrido[3,4-d]pyrimidin-4(3H)-one] |  |  |  | 5.86 | > 8.00 | 
8 | O=c1c2cc(-c3ccc(C(F)(F)F)cc3)nc(-c3cccnc3)c2ncn1[C@H]1CC[C@H](O)CC1 [Example 57, 3-((1r,4r)-4-hydroxycyclohexyl)-8-(pyridin-3-yl)-6-(4-(trifluoromethyl)phenyl)pyrido[3,4-d]pyrimidin-4(3H)-one] |  |  |  | 5.35 | > 8.00 | 
9 | CC(CO)N1CNc2c(cc(-c3ccc(C(F)(F)F)cc3)nc2-c2cnn(C)c2)C1=O (stereo not shown) [Example 59, 3-(1-hydroxypropan-2-yl)-8-(1-methyl-1H-pyrazol-4-yl)-6-(4-(trifluoromethyl)phenyl)-2,3-dihydropyrido[3,4-d]pyrimidin-4(1H)-one] |  |  |  | < 4.52 | > 8.00 | > 10000 nM
10 | O=c1c2cc(-c3ccc(Cl)cc3)nc(-c3cccnc3)c2ncn1CC(O)CO (stereo not shown) [Example 67, 6-(4-chlorophenyl)-3-(2,3-dihydroxypropyl)-8-(pyridin-3-yl)pyrido[3,4-d]pyrimidin-4(3H)-one] |  |  | > 8.00 | < 4.52 |  | > 10000 nM
11 | O=c1c2cc(-c3ccc(Cl)nc3)nc(-c3cccnc3)c2ncn1[C@@H]1CC[C@H](O)C1 [Example 71, 6-(6-chloropyridin-3-yl)-3-((1R,3S)-3-hydroxycyclopentyl)-8-(pyridin-3-yl)pyrido[3,4-d]pyrimidin-4(3H)-one] |  |  | 7.00 to 8.00 | < 4.52 |  | > 10000 nM
12 | CS(=O)(=O)CCn1cnc2c(-c3cccnc3)nc(-c3ccc(C(F)(F)F)cc3)cc2c1=O [Example 76, 3-(2-(methylsulfonyl)ethyl)-8-(pyridin-3-yl)-6-(4-(trifluoromethyl)phenyl)pyrido[3,4-d]pyrimidin-4(3H)-one] |  |  | > 8.00 | < 4.52 |  | > 10000 nM
13 | CS(=O)(=O)CCn1cnc2c(-c3cccnc3)nc(-c3ccc(Cl)cc3)cc2c1=O [Example 77, 6-(4-chlorophenyl)-3-(2-(methylsulfonyl)ethyl)-8-(pyridin-3-yl)pyrido[3,4-d]pyrimidin-4(3H)-one] |  |  | > 8.00 | < 4.52 |  | > 10000 nM
14 | O=c1c2cc(-c3ccc(N4CCOCC4)cc3)nc(-c3cccnc3)c2ncn1CC(O)CO (stereo not shown) [Example 82, 3-(2,3-dihydroxypropyl)-6-(4-morpholinophenyl)-8-(pyridin-3-yl)pyrido[3,4-d]pyrimidin-4(3H)-one] |  |  | > 8.00 | < 4.52 |  | > 10000 nM
15 | CC(CNS(C)(=O)=O)n1cnc2c(-c3cccnc3)nc(-c3ccc(Cl)cc3)cc2c1=O (stereo not shown) [Example 89, N-(2-(6-(4-chlorophenyl)-4-oxo-8-(pyridin-3-yl)pyrido[3,4-d]pyrimidin-3(4H)-yl)propyl)methanesulfonamide] |  |  | > 8.00 | < 4.52 |  | > 10000 nM
16 | CS(=O)(=O)N1CCC(n2cnc3c(-c4cccnc4)nc(-c4ccc(Cl)cc4)cc3c2=O)CC1 [Example 94, 6-(4-chlorophenyl)-3-(1-(methylsulfonyl)piperidin-4-yl)-8-(pyridin-3-yl)pyrido[3,4-d]pyrimidin-4(3H)-one] |  |  | > 8.00 | < 4.52 |  | > 10000 nM
17 | O=c1c2cc(-c3ccc(Cl)cc3)nc(-c3cccnc3)c2ncn1C1CCN(S(=O)(=O)C2CC2)CC1 [Example 95, 6-(4-chlorophenyl)-3-(1-(cyclopropylsulfonyl)piperidin-4-yl)-8-(pyridin-3-yl)pyrido[3,4-d]pyrimidin-4(3H)-one] |  |  | > 8.00 | < 4.52 |  | > 10000 nM

Reference: patent US20230147257A1 (DONG-A ST CO., LTD., priority 2020, published 2023)
